Among the data in BindingDB's records for doi:10.1021/jm9600611 (Cytel, 1996) are IC50 values, retold here.

A short description of this assay: Compound was tested for the inhibition of E-selectin-mediated cellular adhesion.

SMILES strings stand for the structures.

`CCO[C@@H]1O[C@@H](CO)[C@H](O)[C@H](O[C@@H]2O[C@@H](CO)[C@@H](O[C@@H]3O[C@@H](CO)[C@H](O)[C@H](O[C@]4(C(=O)O)C[C@@H](O)[C@@H](NC(C)=O)[C@H]([C@H](O)[C@H](O)CO)O4)[C@@H]3O)[C@H](O[C@@H]3O[C@@H](C)[C@@H](O)[C@H](O)[C@@H]3O)[C@@H]2NC(=O)c2ccc3ccccc3c2)[C@@H]1O` [Ethyl(Sodium 5-actamido-3,5-dideoxy-alpha-D-glycero-D-galacto-nonulopyronosylonate)-(2,3)-O-(beta-D-galactopyranosyl)-(1,4)-O(alpha-L-fucopyranosyl)-(1,3)-O-[2-(2-naphthamido)-2-deoxy-beta-D-glucopyranosyl]-(1,3)-O-beta-D-galactopyranoside]: half-maximal inhibition (IC50) was put at 80 µM.

Turning to `CCO[C@@H]1O[C@@H](CO)[C@H](O)[C@H](O[C@@H]2O[C@@H](CO)[C@@H](O[C@@H]3O[C@@H](CO)[C@H](O)[C@H](O[C@]4(C(=O)O)C[C@@H](O)[C@@H](NC(C)=O)[C@H]([C@H](O)[C@H](O)CO)O4)[C@@H]3O)[C@H](O[C@@H]3O[C@@H](C)[C@@H](O)[C@H](O)[C@@H]3O)[C@@H]2NC(=O)c2ccccc2)[C@@H]1O` [Ethyl(Sodium 5-actamido-3,5-dideoxy-alpha-D-glycero-D-galacto-nonulopyronosylonate)-(2,3)-O-(beta-D-galactopyranosyl)-(1,4)-O(alpha-L-fucopyranosyl)-(1,3)-O-[2-(benzamido)-2-deoxy-beta-D-glucopyranosyl]-(1,3)-O-beta-D-galactopyranoside], the IC50 (commonly the concentration at which inhibition is half-maximal) was found to be 300 µM.

The compound `CCO[C@@H]1O[C@@H](CO)[C@H](O)[C@H](O[C@@H]2O[C@@H](CO)[C@@H](O[C@@H]3O[C@@H](CO)[C@H](O)[C@H](O[C@]4(C(=O)O)C[C@@H](O)[C@@H](NC(C)=O)[C@H]([C@H](O)[C@H](O)CO)O4)[C@@H]3O)[C@H](O[C@@H]3O[C@@H](C)[C@@H](O)[C@H](O)[C@@H]3O)[C@@H]2NC(C)=O)[C@@H]1O` [Ethyl(Sodium 5-actamido-3,5-dideoxy-alpha-D-glycero-D-galacto-nonulopyronosylonate)-(2,3)-O-(beta-D-galactopyranosyl)-(1,4)-O(alpha-L-fucopyranosyl)-(1,3)-O-[2-(N-acetylamido)-2-deoxy-beta-D-glucopyranosyl]-(1,3)-O-beta-D-galactopyranoside(N-acetyl SLex)] yielded an IC50 of 1000 µM.

In turn, `CCO[C@@H]1O[C@@H](CO)[C@H](O)[C@H](O[C@@H]2O[C@@H](CO)[C@@H](O[C@@H]3O[C@@H](CO)[C@H](O)[C@H](O[C@]4(C(=O)O)C[C@@H](O)[C@@H](NC(C)=O)[C@H]([C@H](O)[C@H](O)CO)O4)[C@@H]3O)[C@H](O[C@@H]3O[C@@H](C)[C@@H](O)[C@H](O)[C@@H]3O)[C@@H]2NC(=O)C2CCCCC2)[C@@H]1O` [Ethyl(Sodium 5-actamido-3,5-dideoxy-alpha-D-glycero-D-galacto-nonulopyronosylonate)-(2,3)-O-(beta-D-galactopyranosyl)-(1,4)-O(alpha-L-fucopyranosyl)-(1,3)-O-[2-(Cyclohexanecarboxylic acid amido)-2-deoxy-beta-D-glucopyranosyl]-(1,3)-O-beta-D-galactopyranoside] gave an IC50 of 2900 µM.
